Source: PubChem BioAssay (NCI)
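These data come from cells grown in 96-well plates and exposed to compound for 48 hours at five concentrations. Here, GI50 denotes the concentration required for 50% inhibition of growth. TGI is the concentration that stops growth completely.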

How the values were obtained:
Assay in all cases: inhibition of tumour cell growth, NCI panel, 48 h; in the data active = GI50 below about 0.43 µM; inactive = the rest
[1] = tested on: ACHN renal
[2] = tested on: A549 NSCLC
[3] = tested on: MDA-MB-231 breast
[4] = tested on: SK-MEL-5 melanoma
[5] = tested on: TK-10 renal
[6] = tested on: UACC-257 melanoma
[7] = tested on: A498 renal
[8] = tested on: RPMI-8226 leukemia
[9] = tested on: LOX IMVI melanoma
[10] = tested on: K-562 leukemia
[11] = tested on: CCRF-CEM leukemia
[12] = tested on: RXF 393 renal
[13] = tested on: CAKI-1 renal
[14] = tested on: MCF7 breast
[15] = tested on: HT29 colon
[16] = tested on: DU-145 prostate
[17] = tested on: UACC-62 melanoma
[18] = tested on: SW-620 colon
[19] = tested on: MDA-N
[20] = tested on: 786-0 renal
[21] = tested on: HS 578T breast
[22] = tested on: KM12 colon
[23] = tested on: U251 CNS
[24] = tested on: OVCAR-5 ovarian
[25] = tested on: M14 melanoma
[26] = tested on: SF-268 CNS
[27] = tested on: MOLT-4 leukemia
[28] = tested on: SR leukemia
[29] = tested on: SK-MEL-2 melanoma
[30] = tested on: SK-MEL-28 melanoma
[31] = tested on: SN12C renal
[32] = tested on: HCT-15 colon
[33] = tested on: HCT-116 colon
[34] = tested on: SK-OV-3 ovarian
[35] = tested on: IGROV1 ovarian
[36] = tested on: SNB-19 CNS
[37] = tested on: MDA-MB-435
[38] = tested on: PC-3 prostate
[39] = tested on: OVCAR-8 ovarian
[40] = tested on: HOP-92 NSCLC
[41] = tested on: OVCAR-4 ovarian
[42] = tested on: HL-60(TB) leukemia
[43] = tested on: EKVX NSCLC
[44] = tested on: HOP-62 NSCLC
[45] = tested on: SNB-75 CNS
[46] = tested on: UO-31 renal
[47] = tested on: SF-539 CNS
[48] = tested on: T-47D breast
[49] = tested on: NCI-H460 lung
[50] = tested on: NCI-H522 lung
[51] = tested on: MALME-3M melanoma
[52] = tested on: COLO 205 colon
[53] = tested on: OVCAR-3 ovarian
[54] = tested on: NCI-H226 lung
[55] = tested on: NCI-H23 lung
[56] = tested on: SF-295 CNS
[57] = tested on: BT-549 breast
[58] = tested on: NCI/ADR-RES ovarian
[59] = tested on: HCC-2998 colon

CC(=O)Nc1oc(C)nc1C#N
> 100000 nM: TGI [1] | TGI [2] | TGI [3] | TGI [4] | TGI [5] | TGI [6] | TGI [7] | TGI [8] | TGI [9] | TGI [10] | TGI [11] | TGI [12] | TGI [13] | TGI [14] | TGI [15] | TGI [16] | TGI [17] | TGI [18] | TGI [19] | TGI [20] | TGI [21] | TGI [22] | TGI [23] | TGI [24] | TGI [25] | TGI [26] | TGI [27] | TGI [28] | TGI [29] | TGI [30] | TGI [31] | TGI [32] | TGI [33] | TGI [34] | TGI [35] | TGI [36] | TGI [37] | TGI [38] | TGI [39] | TGI [40] | TGI [41] | TGI [42] | TGI [43] | TGI [44]

N#Cc1nc(Cc2cccs2)oc1N
> 100000 nM: TGI [45] | TGI [1] | TGI [2] | TGI [3] | TGI [4] | TGI [5] | TGI [6] | TGI [7] | TGI [8] | TGI [9] | TGI [10] | TGI [11] | TGI [12] | TGI [13] | TGI [14] | TGI [15] | TGI [16] | TGI [17] | TGI [18] | TGI [19] | TGI [20] | TGI [21] | TGI [22] | TGI [23] | TGI [24] | TGI [25] | TGI [26] | TGI [27] | TGI [46] | TGI [28] | TGI [29] | TGI [30] | TGI [31] | TGI [32] | TGI [33] | TGI [34] | TGI [35] | TGI [36] | TGI [37] | TGI [38] | TGI [39] | TGI [40] | TGI [42] | TGI [43] | TGI [44]

CCN(CC)c1ccc(/C=N\NC(=O)c2cccc(Nc3ccnc(C(F)(F)F)c3)c2)c(O)c1
> 24100 nM: TGI [37]
2690 nM: TGI [46]
> 39300 nM: TGI [24]
7260 nM: TGI [15]
31000 nM: TGI [33]
2200 nM: TGI [8]
1430 nM: TGI [25]
> 20800 nM: TGI [30]
> 43100 nM: TGI [3]
> 100000 nM: TGI [2] | TGI [5] | TGI [48] | TGI [10] | TGI [14] | TGI [16] | TGI [18] | TGI [53] | TGI [22] | TGI [55] | TGI [32] | TGI [34] | TGI [36] | TGI [38] | TGI [39] | TGI [40] | TGI [41]
active: GI50 [47] 279 nM | GI50 [45] 253 nM | GI50 [1] 218 nM | GI50 [3] 345 nM | GI50 [4] 242 nM | GI50 [5] 371 nM | GI50 [6] 373 nM | GI50 [8] 152 nM | GI50 [9] 133 nM | GI50 [49] 199 nM | GI50 [10] 374 nM | GI50 [11] 84 nM | GI50 [12] 216 nM | GI50 [13] 182 nM | GI50 [50] 393 nM | GI50 [51] 348 nM | GI50 [14] 296 nM | GI50 [15] 301 nM | GI50 [16] 159 nM | GI50 [52] 327 nM | GI50 [17] 250 nM | GI50 [18] 366 nM | GI50 [53] 271 nM | GI50 [54] 311 nM | GI50 [20] 270 nM | GI50 [21] 374 nM | GI50 [22] 342 nM | GI50 [23] 183 nM | GI50 [24] 408 nM | GI50 [25] 217 nM | GI50 [26] 83 nM | GI50 [27] 126 nM | GI50 [46] 202 nM | GI50 [28] 96.7 nM | GI50 [56] 312 nM | GI50 [30] 191 nM | GI50 [31] 278 nM | GI50 [32] 123 nM | GI50 [33] 121 nM | GI50 [35] 143 nM | GI50 [36] 418 nM | GI50 [37] 412 nM | GI50 [39] 342 nM | GI50 [41] 118 nM | GI50 [42] 299 nM | GI50 [43] 219 nM | GI50 [59] 278 nM | GI50 [44] 184 nM
3800 nM: TGI [43]
1050 nM: TGI [42]
883 nM: TGI [4]
2220 nM: TGI [9]
885 nM: TGI [20]
1490 nM: TGI [27]
3480 nM: TGI [54]
> 28100 nM: TGI [58]
> 27300 nM: TGI [26]
> 37500 nM: TGI [23]
> 65100 nM: TGI [57]
1270 nM: TGI [11]
7440 nM: TGI [45]
inactive: GI50 [2] 587 nM | GI50 [7] 541 nM | GI50 [48] 485 nM | GI50 [55] 575 nM | GI50 [29] 893 nM | GI50 [57] 427 nM | GI50 [34] 499 nM | GI50 [58] 765 nM | GI50 [38] 646 nM | GI50 [40] 1350 nM
1960 nM: TGI [44]
496 nM: TGI [13]
2580 nM: TGI [52]
4320 nM: TGI [51]
1450 nM: TGI [47]
1680 nM: TGI [17]
> 36500 nM: TGI [31]
1900 nM: TGI [12]
15700 nM: TGI [50]
736 nM: TGI [28]
8760 nM: TGI [59]
> 41200 nM: TGI [29]
17000 nM: TGI [7]
11600 nM: TGI [21]
> 40400 nM: TGI [1]
2240 nM: TGI [49]
2470 nM: TGI [56]
